ChEMBL document CHEMBL5543072, “Discovery of a novel lead characterized by a stilbene-extended scaffold against sepsis as soluble epoxide hydrolase inhibitors” (Eur J Med Chem, 2024)
Calls of active or inactive are those of the source. The rule behind the calls is not given here.

How the values were obtained:
[1] = target: T1, Bifunctional epoxide hydrolase 2 (Mus musculus, UniProt P34914)
T1 sequence (P34914 whole entry): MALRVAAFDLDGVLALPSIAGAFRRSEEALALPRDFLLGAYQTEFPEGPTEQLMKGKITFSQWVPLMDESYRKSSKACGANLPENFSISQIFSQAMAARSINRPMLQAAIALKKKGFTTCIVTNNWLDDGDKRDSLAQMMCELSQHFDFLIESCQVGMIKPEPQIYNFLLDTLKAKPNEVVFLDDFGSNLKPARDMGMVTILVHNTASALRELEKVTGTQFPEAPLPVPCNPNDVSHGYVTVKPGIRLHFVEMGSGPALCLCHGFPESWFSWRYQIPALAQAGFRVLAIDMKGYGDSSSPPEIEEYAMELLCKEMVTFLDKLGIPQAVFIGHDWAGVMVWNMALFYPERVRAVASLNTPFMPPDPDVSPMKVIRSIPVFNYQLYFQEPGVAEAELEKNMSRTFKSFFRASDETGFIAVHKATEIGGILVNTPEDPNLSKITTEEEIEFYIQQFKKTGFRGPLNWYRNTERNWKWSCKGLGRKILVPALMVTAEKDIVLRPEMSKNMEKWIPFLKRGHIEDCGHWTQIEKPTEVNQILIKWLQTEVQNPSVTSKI

Mus musculus [2] = test: Protection against LPS-induced sepsis in C57BL/6J mouse model assessed as delay in death time at 0.5 to 5 mg/kg, ip measured upto 72 hrs; type: functional, organism-based; conditions: dose 0.5-5 mg/kg
[3] = Toxicity in LPS-induced sepsis C57BL/6J mouse model assessed as effect on survival rate at 0.5 to 5 mg/kg, ip measured upto 72 hrs; type: organism-based; conditions: in vivo, dose 0.5-5 mg/kg
[4] = Cytotoxicity in HEK293T cells assessed as cell viability at 5 uM incubated for 48 hrs by CCK8 assay relative to control; type: toxicity, cell-based, HEK-293T; conditions: human, read-out: Activity
[5] = Cytotoxicity in HEK293T cells assessed as cell viability at 50 uM incubated for 48 hrs by CCK8 assay relative to control; type: toxicity, cell-based, HEK-293T; conditions: human, read-out: Activity
[6] = Cytotoxicity against human HepG2 cells assessed as cell viability at 5 uM incubated for 48 hrs by CCK8 assay relative to control; type: toxicity, cell-based; conditions: read-out: Activity
[7] = Cytotoxicity against human HepG2 cells assessed as cell viability at 50 uM incubated for 48 hrs by CCK8 assay relative to control; type: toxicity, cell-based; conditions: read-out: Activity
[8] = target: T2, Bifunctional epoxide hydrolase 2 (Homo sapiens, UniProt P34913)
T2 sequence (P34913 whole entry): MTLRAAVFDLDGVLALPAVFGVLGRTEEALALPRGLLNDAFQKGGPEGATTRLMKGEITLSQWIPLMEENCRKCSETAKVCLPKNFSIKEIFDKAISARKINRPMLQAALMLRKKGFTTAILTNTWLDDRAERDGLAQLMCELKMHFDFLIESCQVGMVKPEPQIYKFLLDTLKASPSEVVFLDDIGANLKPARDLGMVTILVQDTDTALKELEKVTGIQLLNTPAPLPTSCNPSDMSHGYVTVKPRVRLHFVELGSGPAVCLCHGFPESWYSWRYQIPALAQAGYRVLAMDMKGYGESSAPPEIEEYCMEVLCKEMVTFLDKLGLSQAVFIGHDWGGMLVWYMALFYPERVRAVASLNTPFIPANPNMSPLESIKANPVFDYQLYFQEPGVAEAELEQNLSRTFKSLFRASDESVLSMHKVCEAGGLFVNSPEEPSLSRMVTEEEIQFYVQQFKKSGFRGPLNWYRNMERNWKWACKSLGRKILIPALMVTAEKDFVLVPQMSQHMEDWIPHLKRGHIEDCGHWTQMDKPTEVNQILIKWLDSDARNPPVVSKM

Mus musculus [9] = test: Protection against LPS-induced sepsis in C57BL/6J mouse model assessed as survival rate at 5 mg/kg, iv measured after 24 hrs relative to control; type: functional
Mus musculus [10] = test: Protection against LPS-induced sepsis in C57BL/6J mouse model assessed as survival rate at 5 mg/kg, iv measured after 48 hrs relative to control; type: functional
Mus musculus [11] = test: Protection against LPS-induced sepsis in C57BL/6J mouse model assessed as survival rate at 5 mg/kg, iv measured after 72 hrs relative to control; type: functional
Mus musculus [12] = test: Protection against LPS-induced sepsis in C57BL/6J mouse model assessed as […] at 5 mg/kg, iv measured after 32 hrs relative to control; type: functional

| SMILES | IC50 [1] [nM] | other results |
| --- | --- | --- |
| O=C(NCC1CCOCC1)Nc1ccc(/C=C/c2ccc3c(c2)OCO3)cc1 | 1.63 | Activity (Mus musculus [2]): Active; Activity [3]: Non-Toxic; viability at 48 h, 5 µM [4]: 98.2%; viability at 48 h, 50 µM [5]: 84.3%; viability at 48 h, 5 µM [6]: 82.8%; viability at 48 h, 50 µM [7]: 69%; IC50 [8]: 4.78 nM |
| O=C(NCC1CCOCC1)Nc1ccc(/C=C/c2cccc(NC(=O)c3ccccn3)c2)cc1 | 8.42 | – |
| CC[C@H](C)C(=O)N1CCC(NC(=O)Nc2ccc(OC(F)(F)F)c(F)c2)CC1 | – | survival at 5 mg/kg (Mus musculus [9]): 30%; survival at 5 mg/kg (Mus musculus [10]): 0%; survival at 5 mg/kg (Mus musculus [11]): 0% |
| C[C@@H]1C[C@H]2[C@@H]3CCC4=CC(=O)C=C[C@]4(C)[C@@]3(F)[C@@H](O)C[C@]2(C)[C@@]1(O)C(=O)CO [DEXAMETHASONE] | – | survival at 5 mg/kg (Mus musculus [9]): 100%; survival at 5 mg/kg (Mus musculus [10]): 100%; survival at 5 mg/kg (Mus musculus [11]): 100% |
| CN1CCC(NC(=O)Nc2ccc(/C=C/c3ccc4c(c3)OCO4)cc2)CC1 | 2600 | – |
| CN1CCN(C(=O)Nc2ccc(/C=C/c3ccc4c(c3)OCO4)cc2)CC1 | 2740 | – |
| COc1cc(/C=C/c2cccc(NC(=O)NCC(C)C)c2)cc(OC)c1 | 44.5 | – |
| COc1cc(/C=C/c2ccc(CNC(=O)NCC(C)C)cc2)cc(OC)c1 | 14.3 | – |
| O=C(Cc1ccc2ncccc2c1)Nc1cccc(/C=C/c2ccc(NC(=O)NCC3CCOCC3)cc2)c1 | 1.4 | survival at 5 mg/kg (Mus musculus [9]): 80%; survival at 5 mg/kg (Mus musculus [10]): 0%; survival at 5 mg/kg (Mus musculus [11]): 0%; Activity (Mus musculus [12]): 0% |
| CCC(=O)N1CCN(C(=O)Nc2ccc(/C=C/c3ccc4c(c3)OCO4)cc2)CC1 | 200 | – |
| COc1cc(/C=C/c2ccc(NC(=O)NCC3CCN(C)CC3)cc2)cc(OC)c1 | 908 | – |
| CC(C)CCNC(=O)Nc1cccc(/C=C/c2ccc3c(c2)OCO3)c1 | 23.3 | – |
| COc1cc(/C=C/c2ccc(NC(=O)N(C)C)cc2)cc(OC)c1 | 5200 | – |
| O=C(Cc1ccccn1)Nc1cccc(NC(=O)c2ccc(NC(=O)NCC3CCOCC3)cc2)c1 | 67.4 | – |
| CCC(=O)N1CCC(NC(=O)Nc2ccc(/C=C/c3ccc4c(c3)OCO4)cc2)CC1 | 8.02 | – |
| COc1cc(/C=C/c2cccc(NC(=O)NCC3CCOCC3)c2)cc(OC)c1 | 91.3 | – |
| O=C(Cc1cccnc1)Nc1cccc(/C=C/c2ccc(NC(=O)NCC3CCOCC3)cc2)c1 | 2.03 | survival at 5 mg/kg (Mus musculus [9]): 70%; survival at 5 mg/kg (Mus musculus [10]): 20%; survival at 5 mg/kg (Mus musculus [11]): 0%; Activity (Mus musculus [12]): 0% |

Now from value to molecule, other results behind:

| IC50 [1] [nM] | SMILES | other results |
| --- | --- | --- |
| 4.59 | CC(C)CNC(=O)Nc1ccc(/C=C/c2ccc3c(c2)OCO3)c(Cl)c1 | – |
| 1.26 | O=C(Cn1ccc2ccccc21)Nc1cccc(/C=C/c2ccc(NC(=O)NCC3CCOCC3)cc2)c1 | – |
| 2.53 | COc1cc(/C=C/c2ccc(NC(=O)NCC3CCOCC3)cc2)cc(OC)c1 | – |
| 2.74 | O=C(NCC1CCOCC1)Nc1cccc(/C=C/c2ccc3c(c2)OCO3)c1 | – |
| 4.76 | COc1ccc(/C=C/c2ccc(NC(=O)NCC(C)C)cc2)cc1O | – |
| 1.22 | CC(C)CCNC(=O)Nc1ccc(/C=C/c2ccc3c(c2)OCO3)cc1 | – |
| 3.31 | O=C(Cn1c2ccccc2c2ccccc21)Nc1cccc(/C=C/c2ccc(NC(=O)NCC3CCOCC3)cc2)c1 | – |
| 3.45 | O=C(Cc1ccccn1)Nc1ccc(/C=C/c2ccc(NC(=O)NCC3CCOCC3)cc2)cc1 | – |
| 3.21 | Cc1cc(/C=C/c2ccc3c(c2)OCO3)ccc1NC(=O)NCC(C)C | – |
| 3.23 | Cc1cc(NC(=O)NCC(C)C)ccc1/C=C/c1ccc2c(c1)OCO2 | – |
| 1.42 | O=C(Cc1ccncc1)Nc1cccc(/C=C/c2ccc(NC(=O)NCC3CCOCC3)cc2)c1 | – |
| 2.68 | CC(C)CNC(=O)Nc1ccc(/C=C/c2ccc3c(c2)OCO3)cc1 | – |
| 2.03 | CC(C)CNC(=O)Nc1cccc(/C=C/c2ccc3c(c2)OCO3)c1 | – |
| 1.92 | COc1cc(/C=C/c2ccc(NC(=O)NCC(C)C)cc2)cc(OC)c1 | – |
| 6.72 | CC(C)CNC(=O)Nc1ccc(/C=C/c2ccc3c(c2)OCO3)c(F)c1 | – |
| 1.24 | CC(C)CNC(=O)Nc1ccc(/C=C/c2ccc3c(c2)OCO3)cc1F | – |
| 5.78 | O=C(NCC1CCOCC1)Nc1ccc(/C=C/c2cccc(C(=O)NCc3ccccn3)c2)cc1 | – |
